For this experiment, the system named is avian influenza virus (H5N1), A/Vietnam/1194/04(H5N1)-NIBRG-14 vaccine strain. In kind it is cell-based.

Each structure is given as a SMILES string.

`C[C@@H]1O[C@@H](OC[C@H]2O[C@@H](Oc3c(-c4ccc(O)cc4)oc4cc(O)cc(O)c4c3=O)[C@H](O)[C@@H](O)[C@@H]2O)[C@H](O)[C@H](O)[C@H]1O` [Compound I, kaempferol 3-O-α-L-rhamnopyranosyl (1→6)-β-D-glucopyranoside]: the Activity result is “◯ (key: ◯: antiviral activity defined as a decrease of 4 log units; X: antiviral activity defined as a decrease of 4 log units)”, the log100TCID50/ml is listed as 5 and the “viral titer lower than that of the control group” value is given as 4 log.
In the case of `O=C(O)[C@H]1O[C@@H](Oc2cc(O)c3c(=O)cc(-c4ccc(O)cc4)oc3c2)[C@H](O)[C@@H](O)[C@@H]1O` [Compound II, apigenin 7-O-β-D-glucuronopyranoside], the Activity result was “X (key: ◯: antiviral activity defined as a decrease of 4 log units; X: antiviral activity defined as a decrease of 4 log units)”, the CPE inhibitory concentration is more than 10 µg/mL and the log100TCID50/ml turned out to be 0.

The values above are taken from patent publication US20130338090A1, “Novel Compound Isolated from Allium tuberosum and Use Thereof as Antiviral Agent” (priority 2011, published 2013).
